From PubChem BioAssay (NCI)
Values joined by “and” are separate entries in the source; they are usually repeats but may differ in a detail not shown here. Equal entries are not always repeated.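 96-well plates; 48 h exposure; 5 concentrations. Endpoints by linear interpolation between flanking doses. Not reached: highest tested concentration assigned. GI50 is the concentration that inhibits growth by half. TGI marks complete inhibition of growth.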

Key:
Experiment in all cases: growth of human tumour cells (NCI), 48 h
[1] = test system: ACHN renal
[2] = test system: HCT-15 colon
[3] = test system: IGROV1 ovarian
[4] = test system: LOX IMVI melanoma
[5] = test system: NCI-H460 lung
[6] = test system: NCI/ADR-RES ovarian
[7] = test system: SK-MEL-5 melanoma
[8] = test system: U251 CNS
[9] = test system: UACC-257 melanoma
[10] = test system: UO-31 renal

Compound | GI50 [1] | TGI [1] | GI50 [2] | TGI [2] | GI50 [3] | TGI [3] | GI50 [4] | TGI [4] [µM] | GI50 [5] | TGI [5] | GI50 [6] [µM] | TGI [6] | GI50 [7] | TGI [7] | GI50 [8] | TGI [8] | GI50 [9] [µM] | TGI [9] | GI50 [10] | TGI [10]
COC(=O)C(Cc1ccccc1)N/C=C\C(=O)c1ccc(Cl)cc1 (stereo not drawn) | 23.6 µM | 54.9 µM | 23.6 µM | 59.3 µM | > 100 µM | > 100 µM | 19.6 µM | 39.4 | 20.5 µM | 48.2 µM | 19.7 | 50.4 µM | 19.3 µM | 33.5 µM | 22 µM | 51.7 µM | 26.5 | 67.1 µM | 38.4 µM | > 100 µM
Cc1ccc([N+](=O)[O-])c2c(NCCCN(C)C)ccnc12 |  | > 100 µM |  | > 100 µM |  | 91.8 µM |  | > 100 |  | 76.1 µM |  | > 100 µM |  | 72.8 µM |  | > 100 µM |  | > 91.1 µM |  | > 100 µM
CC(=O)O[C@H]1C(=O)[C@@]2(C)[C@H]([C@H](OC(=O)c3ccccc3)[C@]3([O-])C[C@H](OC(=O)[C@H]([O-])[C@@H](NC(=O)c4ccccc4)c4ccccc4)C(C)=C1C3(C)C)[C@]1(OC(C)=O)CO[C@@H]1C[C@@H]2[O-].[Fe+3] | 2.48 µM and 2.96 µM | 65 µM and > 100 µM | 1.97 µM and 2.33 µM | 16.2 µM and 17 µM | 0.0426 µM and 0.211 µM | 65 µM and 72.5 µM | 0.0219 µM and 0.107 µM |  | 0.0266 µM and 0.0498 µM | 65 µM and 25.5 µM | 19.2 | 15.9 µM and > 100 µM | 0.0521 µM and 0.0683 µM | 65 µM and 19.6 µM | 0.0357 µM and 0.0647 µM | 7.38 µM and 17.2 µM |  | 65 µM and > 100 µM | 4.45 µM and 4.87 µM | 65 µM and > 100 µM
C=CC(=O)Nc1cccc(Nc2nc(Nc3ccc(OCCOC)cc3)ncc2F)c1 | 0.454 µM | 2.84 µM | 1.03 µM | 16.1 µM | 1.66 µM | 5.45 µM | 1.12 µM | 3.62 | 2.28 µM | 14.5 µM | 2.94 | 16.3 µM | 6.18 µM | 20.2 µM | 1.89 µM | 16 µM | 6.4 | 22.5 µM | 0.549 µM | 5.06 µM
Oc1ccc(Cc2ccccc2)c2cccnc12 | 1.21 µM | 9.53 µM | 0.507 µM | 44.9 µM | 2.2 µM | 32.8 µM | 1.53 µM | 19 | 1.61 µM | 17.3 µM | 0.49 | 13.3 µM | 1.52 µM | 10.8 µM | 0.999 µM | 37.7 µM | 4.06 | > 100 µM | 0.628 µM | 9.34 µM
CCCSc1cc(Cl)nc(N)n1 | > 100 µM | > 100 µM | > 100 µM | > 100 µM | > 100 µM | > 100 µM | > 100 µM | > 100 | > 100 µM | > 100 µM | > 100 | > 100 µM | > 100 µM | > 100 µM | > 100 µM | > 100 µM | > 100 | > 100 µM | 71.5 µM | > 100 µM
N#Cc1c(-c2ccccc2)nc2c(c(-c3ccccc3)nn2-c2ccccc2)c1-c1ccc(O)cc1 | 2.24 µM | 5.89 µM | 1.62 µM | 3.79 µM | 1.8 µM | 3.62 µM | 1.68 µM | 3.05 | 1.73 µM | 3.26 µM | 2.27 | 5.62 µM | 1.76 µM | 3.19 µM | 1.63 µM | 3.97 µM | 3.13 | 12.1 µM | 2.02 µM | 4.16 µM
CN1CCN(Cc2ccc(NC(=O)c3ccc(C(C)(C)C)c(C#Cc4cnc5cccnn45)c3)cc2C(F)(F)F)CC1 | 1.99 µM | 3.69 µM | 1.21 µM | 2.66 µM | 2.55 µM | 6.99 µM | 1.52 µM | 2.87 | 2.13 µM | 4.52 µM | 2.34 | 5.86 µM | 2.16 µM | 4.86 µM | 1.97 µM | 3.62 µM | 1.89 | 3.68 µM | 1.93 µM | 3.9 µM
CCn1c(-c2nonc2N)nc2ccc(F)cc21 | > 25 µM | > 25 µM | > 25 µM | > 25 µM | > 25 µM | > 25 µM | > 25 µM | > 25 | > 25 µM | > 25 µM | > 25 | > 25 µM | > 25 µM | > 25 µM | > 25 µM | > 25 µM | > 25 | > 25 µM | > 25 µM | > 25 µM
CC(=O)[CH-]C(C)=O.CC(=O)[CH-]C(C)=O.N=CC=N.[Sn+2] | 3.2 µM | 9.77 µM | 2.7 µM | 7.14 µM | 9.53 µM | 22.4 µM | 1.57 µM | 2.97 | 3.9 µM | 10.8 µM | 3.15 | 12.6 µM | 5.46 µM | 16.9 µM | 5.16 µM | 17.1 µM | 4.64 | 15.9 µM | 9 µM | 21.1 µM
CCCCCCNc1nc(NCCCCCC)c2[nH]c(NCCCCCC)nc2n1 | 15 µM | 37.8 µM | 10.7 µM | > 51.7 µM | 19 µM | > 53.2 µM | 2.66 µM | 7.53 | 5.37 µM | 19.5 µM | 64.5 | > 100 µM | 12.7 µM | 25.2 µM | 2.18 µM | 8.98 µM | 17 | 32.9 µM | 14 µM | 35 µM
COc1ccccc1C(=O)c1ccc2ccccc2c1 |  | > 100 µM |  | > 100 µM |  | 53 µM |  | 31.7 |  | 84.1 µM |  | > 100 µM |  | 19.8 µM |  | > 100 µM |  | > 100 µM |  | 64.7 µM
CNC(=O)c1ccc(-c2cnc3ncc(Cc4ccc5ncccc5c4)n3n2)cc1F | > 100 µM | > 100 µM | > 100 µM | > 100 µM | > 100 µM | > 100 µM | > 100 µM | > 100 | > 100 µM | > 100 µM | > 100 | > 100 µM | > 100 µM | > 100 µM | 75.1 µM | > 100 µM | > 100 | > 100 µM | > 100 µM | > 100 µM
